Experimental data: patent US10934310B2, “Inhibitors of Bruton's tyrosine kinase and method of their use” (JANSSEN PHARMACEUTICA NV, priority 2015, dated 2021)

Molecular target: unphosphorylated-BTK kinase domain (UP-BTK), GST-tagged human BTK (389-659aa) (Homo sapiens (Human), UniProt Q06187)
Experiment: BTK Kinase Lanthascreen Binding Assay
Details: Lanthascreen binding, 60 minutes incubation; pIC50 = negative log of the IC50 in molar
Protocol: BTK Kinase Lanthascreen Binding Assay:
A BTK kinase lanthascreen binding assay monitors compound binding to unphosphorylated-BTK kinase domain (UP-BTK), by competing with a fluorescent labeled tracer. […] Data were analyzed using Xlfit™ version 5.3 from ID Business Solutions (Guildford), Microsoft Excel add-in. pIC50 refers to the negative log of the IC50 in molar.

Chain of unphosphorylated-BTK kinase domain (UP-BTK), GST-tagged human BTK (389-659aa) (Q06187 389-659): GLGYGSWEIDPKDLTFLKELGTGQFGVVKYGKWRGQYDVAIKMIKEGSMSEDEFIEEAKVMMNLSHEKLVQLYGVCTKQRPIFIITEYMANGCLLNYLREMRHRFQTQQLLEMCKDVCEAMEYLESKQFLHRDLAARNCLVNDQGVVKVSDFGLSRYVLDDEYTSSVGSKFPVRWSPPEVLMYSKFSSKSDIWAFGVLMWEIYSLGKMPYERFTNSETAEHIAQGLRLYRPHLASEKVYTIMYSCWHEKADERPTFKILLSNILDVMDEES

Compared with `C=CC(=O)N[C@H]1CCCC[C@H]1NC(=O)c1sc2nccc3c2c1NC(=O)N3c1ccc(Oc2ccccc2)nc1C` (single isomer, unassigned) [Example 303, N-((1R,2S)-2-Acrylamidocyclohexyl)-5-(*S)-(2-methyl-6-phenoxypyridin-3-yl)-4-oxo-4,5-dihydro-3H-1-thia-3,5,8-triazaacenaphthylene-2-carboxamide], `C=CC(=O)N[C@@H]1CCCC[C@H]1NC(=O)c1sc2nccc3c2c1NC(=O)N3c1ccc(Oc2ccccc2)nc1C` (single isomer, unassigned) [Example 322, N-((1R,2R)-2-Acrylamidocyclohexyl)-5-(*S)-(2-methyl-6-phenoxypyridin-3-yl)-4-oxo-4,5-dihydro-3H-1-thia-3,5,8-triazaacenaphthylene-2-carboxamide] is lower in “BTK_I_binding pIC50” value: 8.40 for the first, 6.81 for the second.

`C=CC(=O)N[C@H]1CCC[C@H]1NC(=O)c1sc2nccc3c2c1NC(=O)N3c1ccc(OC2CCOCC2)cc1C` (single isomer, unassigned) [Example 304, N-((1R,2S)-2-Acrylamidocyclopentyl)-5-(*S)-(2-methyl-4-((tetrahydro-2H-pyran-4-yl)oxy)phenyl)-4-oxo-4,5-dihydro-3H-1-thia-3,5,8-triazaacenaphthylene-2-carboxamide] and `C=CC(=O)N[C@@H]1CCC[C@H]1NC(=O)c1sc2nccc3c2c1NC(=O)N3c1ccc(OC(C)C)cc1C` (single isomer, unassigned) [Example 316, N-((1R,2R)-2-Acrylamidocyclopentyl)-5-(*S)-(4-isopropoxy-2-methylphenyl)-4-oxo-4,5-dihydro-3H-1-thia-3,5,8-triazaacenaphthylene-2-carboxamide] are within 0.2 log units of each other in “BTK_I_binding pIC50” value: 7.48 for the first, 7.33 for the second.

Compared with `C=CC(=O)N[C@H]1CC[C@H](NC(=O)c2sc3nccc4c3c2NC(=O)N4c2cnc(Oc3ccccc3)cc2C)C1` (single isomer, unassigned) [Example 306, N-((1*S,3*S)-3-Acrylamidocyclopentyl)-5-(*S)-(4-methyl-6-phenoxypyridin-3-yl)-4-oxo-4,5-dihydro-3H-1-thia-3,5,8-triazaacenaphthylene-2-carboxamide], `C=CC(=O)N[C@@H]1CC[C@@H](NC(=O)c2sc3nccc4c3c2NC(=O)N4c2cnc(Oc3ccccc3)cc2C)C1` (single isomer, unassigned) [Example 329, N-((1*R,3*R)-3-Acrylamidocyclopentyl)-5-(*S)-(4-methyl-6-phenoxypyridin-3-yl)-4-oxo-4,5-dihydro-3H-1-thia-3,5,8-triazaacenaphthylene-2-carboxamide] is lower in “BTK_I_binding pIC50” value: 8.04 for the first, 6.85 for the second.

First: C=CC(=O)N[C@H]1CCC[C@H](NC(=O)c2sc3nccc4c3c2NC(=O)N4c2cnc(Oc3ccccc3)cc2C)C1 (single isomer, unassigned) [Example 308, N-((1*S,3*S)-3-Acrylamidocyclohexyl)-5-(*S)-(4-methyl-6-phenoxypyridin-3-yl)-4-oxo-4,5-dihydro-3H-1-thia-3,5,8-triazaacenaphthylene-2-carboxamide]
Second: C=CC(=O)N[C@@H]1CCC[C@@H](NC(=O)c2sc3nccc4c3c2NC(=O)N4c2cnc(Oc3ccccc3)cc2C)C1 (single isomer, unassigned) [Example 332, N-((1*R,3*R)-3-Acrylamidocyclohexyl)-5-(*S)-(4-methyl-6-phenoxypyridin-3-yl)-4-oxo-4,5-dihydro-3H-1-thia-3,5,8-triazaacenaphthylene-2-carboxamide]
The “BTK_I_binding pIC50” value of the first is higher: 7.78 for the first, 6.60 for the second.

`C=CC(=O)N[C@H]1CCCC[C@H]1NC(=O)c1sc2nccc3c2c1NC(=O)N3c1cnc(OC2CCCC2)cc1C` (single isomer, unassigned) [Example 309, N-((1R,2S)-2-Acrylamidocyclohexyl)-5-(*S)-(6-(cyclopentyloxy)-4-methylpyridin-3-yl)-4-oxo-4,5-dihydro-3H-1-thia-3,5,8-triazaacenaphthylene-2-carboxamide] and `C=CC(=O)N[C@H]1CCCC[C@H]1NC(=O)c1sc2nccc3c2c1NC(=O)N3c1cnc(OCC(C)C)cc1C` (single isomer, unassigned) [Example 312, N-((1R,2S)-2-Acrylamidocyclohexyl)-5-(*S)-(6-isobutoxy-4-methylpyridin-3-yl)-4-oxo-4,5-dihydro-3H-1-thia-3,5,8-triazaacenaphthylene-2-carboxamide] are within 0.2 log units of each other in “BTK_I_binding pIC50” value: 7.91 for the first, 8.01 for the second.

Compared with `C=CC(=O)N[C@@H]1CC[C@H](NC(=O)c2sc3nccc4c3c2NC(=O)N4c2ccc(Oc3ccccc3)cn2)C1` (single isomer, unassigned) [Example 313], `C=CC(=O)N[C@H]1CC[C@@H](NC(=O)c2sc3nccc4c3c2NC(=O)N4c2ccc(Oc3ccccc3)cn2)C1` (single isomer, unassigned) [Example 328, N-((1*R,3*S)-3-Acrylamidocyclopentyl)-4-oxo-5-(5-phenoxypyridin-2-yl)-4,5-dihydro-3H-1-thia-3,5,8-triazaacenaphthylene-2-carboxamide] is lower in “BTK_I_binding pIC50” value: 7.83 for the first, 6.58 for the second.

Going from `C=CC(=O)N[C@H]1CCC[C@H](NC(=O)c2sc3nccc4c3c2NC(=O)N4c2ccc(Oc3ccccc3)cn2)C1` (single isomer, unassigned) [Example 315, N-((1*S,3*S)-3-Acrylamidocyclohexyl)-4-oxo-5-(5-phenoxypyridin-2-yl)-4,5-dihydro-3H-1-thia-3,5,8-triazaacenaphthylene-2-carboxamide] to `C=CC(=O)N[C@H]1CCC[C@H](NC(=O)c2sc3nccc4c3c2NC(=O)N4c2ccc(Oc3ccccc3)nc2)C1` (single isomer, unassigned) [Example 323], the “BTK_I_binding pIC50” value falls from 7.50 to 7.13.

`Cc1nc(Oc2ccccc2)ccc1N1C(=O)Nc2c(C(=O)N[C@@H]3CCC[C@@H]3N)sc3nccc1c23` (single isomer, unassigned) [Example 318, N-((1*R,2*S)-2-Aminocyclopentyl)-5-(*S)-(2-methyl-6-phenoxypyridin-3-yl)-4-oxo-4,5-dihydro-3H-1-thia-3,5,8-triazaacenaphthylene-2-carboxamide] and `Cc1nc(Oc2ccccc2)ccc1N1C(=O)Nc2c(C(=O)N[C@@H]3CCC[C@H]3N)sc3nccc1c23` (single isomer, unassigned) [Example 339, N-((1R,2R)-2-Aminocyclopentyl)-5-(*S)-(2-methyl-6-phenoxypyridin-3-yl)-4-oxo-4,5-dihydro-3H-1-thia-3,5,8-triazaacenaphthylene-2-carboxamide] are within 0.2 log units of each other in “BTK_I_binding pIC50” value: 6.46 for the first, 6.28 for the second.

Compared with `C=CC(=O)N[C@H]1CC[C@H](NC(=O)c2sc3nccc4c3c2NC(=O)N4c2ccc(Oc3ccccc3)nc2)C1` (single isomer, unassigned) [Example 321, N-((1*S,3*S)-3-Acrylamidocyclopentyl)-4-oxo-5-(6-phenoxypyridin-3-yl)-4,5-dihydro-3H-1-thia-3,5,8-triazaacenaphthylene-2-carboxamide], `C=CC(=O)N[C@@H]1CC[C@@H](NC(=O)c2sc3nccc4c3c2NC(=O)N4c2ccc(Oc3ccccc3)nc2)C1` (single isomer, unassigned) [Example 334, N-((1*R,3*R)-3-Acrylamidocyclopentyl)-4-oxo-5-(6-phenoxypyridin-3-yl)-4,5-dihydro-3H-1-thia-3,5,8-triazaacenaphthylene-2-carboxamide] is lower in “BTK_I_binding pIC50” value: 7.71 for the first, 6.81 for the second.

Going from `C=CC(=O)N[C@@H]1CCC[C@@H](NC(=O)c2sc3nccc4c3c2NC(=O)N4c2ccc(Oc3ccccc3)nc2)C1` (single isomer, unassigned) [Example 331, N-((1*R,3*R)-3-Acrylamidocyclohexyl)-4-oxo-5-(6-phenoxypyridin-3-yl)-4,5-dihydro-3H-1-thia-3,5,8-triazaacenaphthylene-2-carboxamide] to `CC(=O)N[C@H]1CCCC[C@H]1NC(=O)c1sc2nccc3c2c1NC(=O)N3c1ccc(Oc2ccccc2)nc1C` (single isomer, unassigned) [Example 340, N-((1R,2S)-2-Acetamidocyclohexyl)-5-(*S)-(2-methyl-6-phenoxypyridin-3-yl)-4-oxo-4,5-dihydro-3H-1-thia-3,5,8-triazaacenaphthylene-2-carboxamide], the “BTK_I_binding pIC50” value falls from 6.66 to 6.26.

First: Cc1nc(Oc2ccccc2)ccc1N1C(=O)Nc2c(C(=O)N[C@@H]3CCCC[C@@H]3N)sc3nccc1c23 (single isomer, unassigned) [Example 333, N-((1R,2S)-2-Aminocyclohexyl)-5-(*S)-(2-methyl-6-phenoxypyridin-3-yl)-4-oxo-4,5-dihydro-3H-1-thia-3,5,8-triazaacenaphthylene-2-carboxamide]
Second: CCC(=O)N[C@H]1CCCC[C@H]1NC(=O)c1sc2nccc3c2c1NC(=O)N3c1ccc(Oc2ccccc2)nc1C (single isomer, unassigned) [Example 343, 5-(*S)-(2-Methyl-6-phenoxypyridin-3-yl)-4-oxo-N-((1R,2S)-2-propionamidocyclohexyl)-4,5-dihydro-3H-1-thia-3,5,8-triazaacenaphthylene-2-carboxamide]
The “BTK_I_binding pIC50” value of the first is higher: 6.50 for the first, 6.11 for the second.

`Cc1cc(CC(C)C)ncc1N1C(=O)Nc2c(C(=O)N[C@@H]3CCCC[C@@H]3N)sc3nccc1c23` (single isomer, unassigned) [Example 335, N-((1R,2S)-2-Aminocyclohexyl)-5-(*S)-(6-isobutyl-4-methylpyridin-3-yl)-4-oxo-4,5-dihydro-3H-1-thia-3,5,8-triazaacenaphthylene-2-carboxamide] and `C=CC(=O)N[C@H]1CCCC[C@H]1NC(=O)c1sc2nccc3c2c1NC(=O)N3c1cnc(OC2CCCC2)cc1C` (single isomer, unassigned) [Example 341, N-((1R,2S)-2-Acrylamidocyclohexyl)-5-(*R)-(6-(cyclopentyloxy)-4-methylpyridin-3-yl)-4-oxo-4,5-dihydro-3H-1-thia-3,5,8-triazaacenaphthylene-2-carboxamide] are within 0.2 log units of each other in “BTK_I_binding pIC50” value: 6.38 for the first, 6.23 for the second.
